Experimental data reported in US12318366B2, “Pharmaceutical combination and composition, and combination preparation containing glucokinase activator and biguanide hypoglycemic drug as well as preparation method and use thereof” (HUA Medicine (Shanghai) Ltd., priority 2018, dated 2025).
Where a name gives a salt, the structure may show the parent alone.

System: patients with type II diabetes
Test: Clinical study on the combination of HMS5552 and metformin hydrochloride: blood glucose after the meal
Type: in vivo, human
Details: 13 type II diabetes patients; oral; metformin hydrochloride 500 mg (day 3), 500 mg + HMS5552 50 mg (day 8), HMS5552 50 mg (day 13); meal 30 minutes after administration
Procedure: 13 patients with type II diabetes were enrolled, who have been given a stable dose of metformin hydrochloride at 1000 mg/day for at least 14 days at the time of enrollment. On the 1st and 2nd day of the study, 500 mg of metformin hydrochloride was given orally daily both in the morning and in the evening; on the 3rd day, 500 mg of metformin hydrochloride was given once in the morning; on each day of the 4th to 7th day, 500 mg of metformin hydrochloride and 50 mg of HMS5552 were given daily both in the morning and in the evening; on the 8th day, 500 mg of metformin hydrochloride and 50 mg of HMS5552 were given once in the morning; on each day of 9th to 12th day, 50 mg of HMS5552 was given orally daily both in the morning and in the evening; and on the 13th day, 50 mg of HMS5552 was given once in the morning. Meals were taken 30 minutes after each administration of the test drugs.
Plasma samples were collected after administration on the 3rd, 8th and 13th day, and the blood glucose concentrations were analyzed.

Compound | area under the curve for blood glucose between 0 and 4 hours after the meal (AUECO-4h) [mg·h/dL]
CC(C)C[C@@H](C(=O)Nc1ccn(C[C@@H](O)CO)n1)N1CC(Oc2ccccc2Cl)=CC1=O [HMS5552, (S)-2-[4-(2-chloro-phenoxy)-2-oxo-2,5-dihydro-pyrrol-1-yl]-4-methyl-pentanoic acid [1-((R)-2,3-dihydroxy-propyl)-1H-pyrazol-3-yl]-amide] | 72.96
CN(C)C(=N)N=C(N)N [metformin, metformin hydrochloride] | 110.2
